This note sets out measurements from patent US9637483B2, “Heterocyclic compound” (TAKEDA PHARMACEUTICAL COMPANY LIMITED, priority 2013, dated 2017).

Assay type in all cases: biochemical
The target in one assay is T1, JAK1 (Homo sapiens, UniProt P23458).
T1 construct: purchased Invitrogen
As to the kind of experiment: JAK1 enzyme inhibition test (LANCE method). Particulars: 1 μM test compound; for inhibition at 1 µM: read-out: JAK1 enzyme inhibitory activity (%, 1 μM). In outline: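 TR-FRET (LANCE) with ULight-JAK1 peptide (300 nM working solution) and ATP (150 μM working solution) in HEPES pH 7.5, MgCl2, EGTA, DTT buffer; 1 h at room temperature. EDTA stop plus Eu-anti-phosphotyrosine antibody, 665 nm read after 1 h. Inhibition relative to enzyme-free wells as 100%.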

The next assay concerns the target T2, JAK2 (Homo sapiens, UniProt O60674).
T2 construct: purchased Invitrogen
As to the kind of experiment: JAK2 enzyme inhibition test (LANCE method). Conditions: 1 μM test compound; for inhibition at 1 µM: read-out: JAK2 enzyme inhibitory activity (%, 1 μM). In outline:
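Recombinant JAK2 (6 ng/mL solution) phosphorylated ULight-JAK1 peptide (300 nM solution) with ATP (45 μM solution) in pH 7.5 HEPES/MgCl2/DTT buffer for 1 hr at room temperature. After EDTA stop and europium anti-phosphotyrosine antibody for 1 hr, TR-FRET read at 665 nm; inhibition relative to enzyme-free wells as 100%.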

The target of another assay is T3, JAK3 (Homo sapiens, UniProt P52333).
T3 construct: purchased Invitrogen
T3 sequence (P52333 1-1124): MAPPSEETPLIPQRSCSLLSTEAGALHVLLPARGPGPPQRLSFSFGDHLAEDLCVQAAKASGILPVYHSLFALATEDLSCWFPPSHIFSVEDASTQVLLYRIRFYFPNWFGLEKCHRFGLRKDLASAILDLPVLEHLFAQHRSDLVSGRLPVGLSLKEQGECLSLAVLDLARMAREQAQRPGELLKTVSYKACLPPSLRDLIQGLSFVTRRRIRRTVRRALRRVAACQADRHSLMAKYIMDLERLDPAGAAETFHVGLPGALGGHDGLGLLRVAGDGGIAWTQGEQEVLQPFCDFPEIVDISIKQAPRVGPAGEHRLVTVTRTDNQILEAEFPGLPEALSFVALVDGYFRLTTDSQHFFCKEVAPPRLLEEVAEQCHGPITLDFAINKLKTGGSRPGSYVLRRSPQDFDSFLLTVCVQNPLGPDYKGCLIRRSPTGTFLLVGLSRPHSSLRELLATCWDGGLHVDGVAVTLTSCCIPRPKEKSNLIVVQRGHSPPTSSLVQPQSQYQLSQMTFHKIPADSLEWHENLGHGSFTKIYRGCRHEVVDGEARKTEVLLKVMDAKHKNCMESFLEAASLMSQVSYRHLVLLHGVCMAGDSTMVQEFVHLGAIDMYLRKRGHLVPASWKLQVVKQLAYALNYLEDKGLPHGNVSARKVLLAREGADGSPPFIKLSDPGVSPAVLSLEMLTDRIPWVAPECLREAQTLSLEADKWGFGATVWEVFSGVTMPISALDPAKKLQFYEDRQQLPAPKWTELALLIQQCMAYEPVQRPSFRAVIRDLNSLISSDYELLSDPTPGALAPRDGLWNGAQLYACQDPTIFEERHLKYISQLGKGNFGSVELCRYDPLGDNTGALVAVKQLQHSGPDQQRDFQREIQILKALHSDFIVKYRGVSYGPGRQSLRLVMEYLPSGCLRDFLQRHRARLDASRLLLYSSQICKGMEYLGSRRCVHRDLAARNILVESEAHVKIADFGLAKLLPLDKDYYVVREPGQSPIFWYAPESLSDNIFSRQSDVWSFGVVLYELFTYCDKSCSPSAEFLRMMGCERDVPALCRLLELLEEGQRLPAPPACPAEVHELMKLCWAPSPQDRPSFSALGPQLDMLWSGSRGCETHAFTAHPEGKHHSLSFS
As to the kind of experiment: JAK3 enzyme inhibition test (LANCE method). Conditions: 1 μM test compound; for inhibition at 1 µM: read-out: JAK3 enzyme inhibitory activity (%, 1 μM). In outline: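 Recombinant JAK3 (12 ng/mL solution) with ULight-JAK1 peptide (300 nM solution) and ATP (15 μM solution) in HEPES pH 7.5 buffer, 1 h at room temperature. EDTA stop with Eu-anti-phosphotyrosine antibody; TR-FRET at 665 nm. Inhibition relative to enzyme-free wells as 100%.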

The next assay concerns the target T4, TYK2 (Homo sapiens, UniProt P29597).
T4 construct: purchased Invitrogen
Briefly: TYK2 enzyme inhibition test (LANCE method). Conditions: 1 μM test compound; for inhibition at 1 µM: read-out: TYK2 enzyme inhibitory activity (%, 1 μM). The method, boiled down: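 Recombinant TYK2 (375 ng/mL working solution) with ULight-JAK1 peptide (300 nM working solution) and ATP (30 μM working solution) in HEPES pH 7.5 buffer with MgCl2, EGTA, DTT, Tween20, BSA, reacted 1 h at RT. EDTA-stopped, Eu-anti-phosphotyrosine TR-FRET read at 665 nm; inhibition relative to enzyme-free wells as 100%.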

T2 sequence (O60674 whole entry): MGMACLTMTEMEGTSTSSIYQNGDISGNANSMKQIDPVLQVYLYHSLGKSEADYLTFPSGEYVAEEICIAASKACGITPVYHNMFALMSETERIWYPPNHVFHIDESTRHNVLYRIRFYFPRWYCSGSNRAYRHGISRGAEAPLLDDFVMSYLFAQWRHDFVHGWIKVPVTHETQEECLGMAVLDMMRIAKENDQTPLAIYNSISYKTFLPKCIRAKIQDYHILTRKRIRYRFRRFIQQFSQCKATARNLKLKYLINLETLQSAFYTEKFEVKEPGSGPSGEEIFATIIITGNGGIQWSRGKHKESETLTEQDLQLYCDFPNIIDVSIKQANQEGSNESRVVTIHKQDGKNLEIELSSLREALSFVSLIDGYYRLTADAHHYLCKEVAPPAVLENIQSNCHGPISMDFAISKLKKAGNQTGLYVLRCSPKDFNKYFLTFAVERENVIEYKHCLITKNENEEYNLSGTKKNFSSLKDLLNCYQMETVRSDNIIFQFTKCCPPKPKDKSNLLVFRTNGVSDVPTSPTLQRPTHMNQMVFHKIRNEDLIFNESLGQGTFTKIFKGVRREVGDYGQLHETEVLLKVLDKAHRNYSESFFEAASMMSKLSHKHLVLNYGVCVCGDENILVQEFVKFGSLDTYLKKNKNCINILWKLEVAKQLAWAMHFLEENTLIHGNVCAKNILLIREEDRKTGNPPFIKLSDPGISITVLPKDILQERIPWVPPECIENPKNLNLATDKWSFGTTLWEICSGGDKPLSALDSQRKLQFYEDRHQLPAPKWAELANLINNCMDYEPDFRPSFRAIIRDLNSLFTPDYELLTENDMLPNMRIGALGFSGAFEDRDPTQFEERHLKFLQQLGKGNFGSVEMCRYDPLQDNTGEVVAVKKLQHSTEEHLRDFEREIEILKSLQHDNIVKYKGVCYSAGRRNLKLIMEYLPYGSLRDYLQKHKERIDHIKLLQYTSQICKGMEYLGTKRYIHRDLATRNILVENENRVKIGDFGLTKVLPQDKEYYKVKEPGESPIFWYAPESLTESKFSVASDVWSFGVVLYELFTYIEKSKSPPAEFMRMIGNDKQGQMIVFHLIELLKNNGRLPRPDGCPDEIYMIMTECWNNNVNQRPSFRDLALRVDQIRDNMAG
T1 sequence (P23458 whole entry): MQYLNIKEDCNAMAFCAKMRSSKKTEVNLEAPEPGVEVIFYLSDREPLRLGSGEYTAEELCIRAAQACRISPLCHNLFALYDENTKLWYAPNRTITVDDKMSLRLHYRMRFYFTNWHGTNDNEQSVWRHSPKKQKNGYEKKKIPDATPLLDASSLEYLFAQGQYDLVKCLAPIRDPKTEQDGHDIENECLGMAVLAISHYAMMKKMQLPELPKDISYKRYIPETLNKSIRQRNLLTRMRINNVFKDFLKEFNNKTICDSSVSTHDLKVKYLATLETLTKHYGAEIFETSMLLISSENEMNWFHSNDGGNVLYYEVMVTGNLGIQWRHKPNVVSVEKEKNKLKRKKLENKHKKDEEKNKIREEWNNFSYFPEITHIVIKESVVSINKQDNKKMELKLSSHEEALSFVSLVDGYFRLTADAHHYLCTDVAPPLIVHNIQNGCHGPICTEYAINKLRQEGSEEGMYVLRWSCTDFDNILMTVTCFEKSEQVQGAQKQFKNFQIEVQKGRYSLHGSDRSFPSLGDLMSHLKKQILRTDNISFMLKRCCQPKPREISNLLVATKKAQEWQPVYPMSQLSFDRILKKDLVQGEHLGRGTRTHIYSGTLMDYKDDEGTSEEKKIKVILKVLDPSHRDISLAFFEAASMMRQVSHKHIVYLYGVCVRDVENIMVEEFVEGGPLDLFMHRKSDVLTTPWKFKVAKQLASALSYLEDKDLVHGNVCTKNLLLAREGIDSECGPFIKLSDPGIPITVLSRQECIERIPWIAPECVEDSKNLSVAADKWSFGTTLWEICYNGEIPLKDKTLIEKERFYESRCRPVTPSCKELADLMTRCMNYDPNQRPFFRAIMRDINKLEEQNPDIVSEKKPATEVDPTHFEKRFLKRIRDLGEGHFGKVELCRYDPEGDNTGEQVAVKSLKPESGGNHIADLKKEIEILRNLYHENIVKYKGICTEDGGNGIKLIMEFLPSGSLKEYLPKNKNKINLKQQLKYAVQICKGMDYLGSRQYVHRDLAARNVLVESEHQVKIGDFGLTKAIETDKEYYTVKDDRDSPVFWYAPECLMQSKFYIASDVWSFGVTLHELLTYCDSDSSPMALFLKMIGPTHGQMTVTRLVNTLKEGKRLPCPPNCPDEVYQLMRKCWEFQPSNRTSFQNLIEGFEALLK
T4 sequence (P29597 whole entry): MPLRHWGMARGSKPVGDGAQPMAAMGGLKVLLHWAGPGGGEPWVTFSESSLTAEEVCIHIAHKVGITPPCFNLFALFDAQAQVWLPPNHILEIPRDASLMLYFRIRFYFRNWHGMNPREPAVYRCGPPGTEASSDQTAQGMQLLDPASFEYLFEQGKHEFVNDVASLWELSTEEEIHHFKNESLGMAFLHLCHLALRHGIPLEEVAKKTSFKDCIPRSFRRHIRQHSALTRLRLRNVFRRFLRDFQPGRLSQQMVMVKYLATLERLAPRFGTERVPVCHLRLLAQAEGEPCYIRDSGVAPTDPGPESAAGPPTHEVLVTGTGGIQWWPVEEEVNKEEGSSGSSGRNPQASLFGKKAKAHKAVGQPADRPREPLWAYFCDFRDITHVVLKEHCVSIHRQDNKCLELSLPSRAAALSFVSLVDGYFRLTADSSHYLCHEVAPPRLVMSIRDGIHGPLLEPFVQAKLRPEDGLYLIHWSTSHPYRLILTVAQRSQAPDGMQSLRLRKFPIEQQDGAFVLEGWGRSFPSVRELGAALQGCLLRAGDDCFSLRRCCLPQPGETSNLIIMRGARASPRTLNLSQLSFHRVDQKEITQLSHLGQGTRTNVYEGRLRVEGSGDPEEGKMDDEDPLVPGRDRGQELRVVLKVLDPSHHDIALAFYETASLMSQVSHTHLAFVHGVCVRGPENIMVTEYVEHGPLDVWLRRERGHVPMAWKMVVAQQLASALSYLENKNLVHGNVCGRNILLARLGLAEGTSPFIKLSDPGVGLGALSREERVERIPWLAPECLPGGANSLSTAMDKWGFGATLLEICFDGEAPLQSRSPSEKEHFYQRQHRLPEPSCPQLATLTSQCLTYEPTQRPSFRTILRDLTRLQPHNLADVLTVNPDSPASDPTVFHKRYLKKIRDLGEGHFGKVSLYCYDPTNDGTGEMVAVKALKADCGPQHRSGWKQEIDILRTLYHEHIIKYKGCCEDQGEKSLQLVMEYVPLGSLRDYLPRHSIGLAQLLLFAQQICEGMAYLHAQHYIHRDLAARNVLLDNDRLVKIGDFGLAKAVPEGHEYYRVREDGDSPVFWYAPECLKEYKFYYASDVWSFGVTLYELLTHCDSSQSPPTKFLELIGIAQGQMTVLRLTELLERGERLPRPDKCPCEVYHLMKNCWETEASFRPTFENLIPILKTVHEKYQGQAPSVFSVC

Consider `CC1CCCCC1n1cc(-c2cc(C(C)(C)O)n(C)n2)c2[nH]nc(N)c2c1=O` (stereo not shown) [Example 119, 3-amino-7-(5-(2-hydroxypropan-2-yl)-1-methyl-1H-pyrazol-3-yl)-5-(2-methylcyclohexyl)-1,5-dihydro-4H-pyrazolo[4,3-c]pyridin-4-one], for which, on JAK1, the “JAK1 enzyme inhibitory activity (%, 1 μM)” value was determined as 99%. The “JAK2 enzyme inhibitory activity (%, 1 μM)” value at JAK2 is on record as 98%. Also, the “JAK3 enzyme inhibitory activity (%, 1 μM)” value on JAK3 is reported as 100%. For the same molecule, the “TYK2 enzyme inhibitory activity (%, 1 μM)” value on TYK2 (1 µM) came to 100%.

Regarding `CC(C)[C@H](C)n1cc(-c2cc(N3CCN(S(=O)(=O)C4CC4)CC3)n(C)n2)c2[nH]nc(N)c2c1=O` [Example 107, 3-amino-7-(5-(4-(cyclopropylsulfonyl)piperazin-1-yl)-1-methyl-1H-pyrazol-3-yl)-5-((2S)-3-methylbutan-2-yl)-1,5-dihydro-4H-pyrazolo[4,3-c]pyridin-4-one], the inhibition at 1 µM is 97% at JAK1, 98% at JAK2, 99% on JAK3 and 100% at TYK2.

Consider `CC(C)[C@H](C)n1cc(-c2cc(CN3CCCC3=O)n(C)n2)c2[nH]nc(N)c2c1=O` [Example 52, 3-amino-5-((2S)-3-methylbutan-2-yl)-7-(1-methyl-5-((2-oxopyrrolidin-1-yl)methyl)-1H-pyrazol-3-yl)-1,5-dihydro-4H-pyrazolo[4,3-c]pyridin-4-one], for which the inhibition at 1 µM was 96% at JAK1, 99% at JAK2, 99% at JAK3 and 100% on TYK2.

On to `CN1CCN(c2cc(-c3cn(-c4c(F)cccc4C#N)c(=O)c4c(N)n[nH]c34)nn2C)CC1` [Example 70, 2-(3-amino-7-(1-methyl-5-(4-methylpiperazin-1-yl)-1H-pyrazol-3-yl)-4-oxo-1,4-dihydro-5H-pyrazolo[4,3-c]pyridin-5-yl)-3-fluorobenzonitrile], for which the inhibition at 1 µM on JAK1 stood at 97%; on JAK2, 96%; on JAK3, 99%; on TYK2 it was 100%.

As for `CC(C)[C@H](C)n1cc(-c2cc(N3CCN4CCCC4C3)n(C)n2)c2[nH]nc(N)c2c1=O` (stereo partly drawn) [Example 61, 3-amino-7-(5-(hexahydropyrrolo[1,2-a]pyrazin-2 (H)-yl)-1-methyl-1H-pyrazol-3-yl)-5-((2S)-3-methylbutan-2-yl)-1,5-dihydro-4H-pyrazolo[4,3-c]pyridin-4-one], the “JAK1 enzyme inhibitory activity (%, 1 μM)” value at JAK1 turned out to be 97%. On JAK2, the “JAK2 enzyme inhibitory activity (%, 1 μM)” value is 99%. Also, at JAK3, the “JAK3 enzyme inhibitory activity (%, 1 μM)” value was 100%. Moreover, the “TYK2 enzyme inhibitory activity (%, 1 μM)” value on TYK2 was 99%.

In the case of `CC(C)[C@H](C)n1cc(-c2cc(N3CCCC3=O)n(C)n2)c2[nH]nc(N)c2c1=O` [Example 55, 3-amino-5-((2S)-3-methylbutan-2-yl)-7-(1-methyl-5-(2-oxopyrrolidin-1-yl)-1H-pyrazol-3-yl)-1,5-dihydro-4H-pyrazolo[4,3-c]pyridin-4-one], the inhibition at 1 µM at JAK1 amounted to 98%; at JAK2, 98%; on JAK3, 99%; on TYK2, 99%.

With `Cn1nc(-c2cn(C(C3CC3)C3CC3)c(=O)c3c(N)n[nH]c23)cc1N1CCN2CCC[C@H]2C1` [Example 162, 3-amino-5-(dicyclopropylmethyl)-7-(5-((8aS)-hexahydropyrrolo[1,2-a]pyrazin-2(1H)-yl)-1-methyl-1H-pyrazol-3-yl)-1,5-dihydro-4H-pyrazolo[4,3-c]pyridin-4-one], the inhibition at 1 µM on JAK1 is 99%; at JAK2, 100%; at JAK3, 100%; at TYK2, 101%.

For `CC(C)[C@H](C)n1cc(-c2cc(C(=O)N(C)C3CCCC3)n(C)n2)c2[nH]nc(N)c2c1=O` [Example 50, 3-(3-amino-5-((2S)-3-methylbutan-2-yl)-4-oxo-4,5-dihydro-1H-pyrazolo[4,3-c]pyridin-7-yl)-N-cyclopentyl-N,1-dimethyl-1H-pyrazole-5-carboxamide], the inhibition at 1 µM on JAK1 worked out at 96%; at JAK2 it was 99%; at JAK3, 100%; on TYK2, 99%.

`CNC(=O)c1cc(-c2cn(-c3c(F)cccc3F)c(=O)c3c(N)n[nH]c23)nn1C` [Example 65, 3-(3-amino-5-(2,6-difluorophenyl)-4-oxo-4,5-dihydro-1H-pyrazolo[4,3-c]pyridin-7-yl)-N,1-dimethyl-1H-pyrazole-5-carboxamide]: the inhibition at 1 µM on JAK1 came to 99%; on JAK2 it was 98%; at JAK3, 100%; at TYK2, 100%.

Regarding `CC(C)[C@H](C)n1cc(-c2cc(N3CCC(C)(O)C3)n(C)n2)c2[nH]nc(N)c2c1=O` (stereo partly drawn) [Example 63, 3-amino-7-(5-(3-hydroxy-3-methylpyrrolidin-1-yl)-1-methyl-1H-pyrazol-3-yl)-5-((2S)-3-methylbutan-2-yl)-1,5-dihydro-4H-pyrazolo[4,3-c]pyridin-4-one], at JAK1, the “JAK1 enzyme inhibitory activity (%, 1 μM)” value was determined as 96%. For the same molecule, the “JAK2 enzyme inhibitory activity (%, 1 μM)” value at JAK2 is recorded as 99%. In addition, the “JAK3 enzyme inhibitory activity (%, 1 μM)” value at JAK3 stood at 100%. For the same molecule, the “TYK2 enzyme inhibitory activity (%, 1 μM)” value on TYK2 (1 µM) is recorded as 99%.

Consider `CC(C)[C@H](C)n1cc(-c2cc(N3CCN4CCCC4C3)n(C)n2)c2[nH]nc(N)c2c1=O` (stereo partly drawn) [Example 32, 3-amino-7-(5-(hexahydropyrrolo[1,2-a]pyrazin-2 (H)-yl)-1-methyl-1H-pyrazol-3-yl)-5-((2S)-3-methylbutan-2-yl)-1,5-dihydro-4H-pyrazolo[4,3-c]pyridin-4-one], for which the inhibition at 1 µM on JAK1 was determined as 96%; on JAK2, 98%; at JAK3 it was 99%; on TYK2 it was 99%.

Consider `CC(C)[C@H](C)n1cc(-c2cc(N(C)C3CCCC3)n(C)n2)c2[nH]nc(N)c2c1=O` [Example 134, 3-amino-7-(5-(cyclopentyl(methyl)amino)-1-methyl-1H-pyrazol-3-yl)-5-((2S)-3-methylbutan-2-yl)-1,5-dihydro-4H-pyrazolo[4,3-c]pyridin-4-one], for which the inhibition at 1 µM on JAK1 worked out at 97%; on JAK2 it was 98%; at JAK3, 99%; at TYK2, 99%.

For `CC(C)[C@H](C)n1cc(-c2cc(C(=O)N(C)C3CCOCC3)n(C)n2)c2[nH]nc(N)c2c1=O` [Example 53, 3-(3-amino-5-((2S)-3-methylbutan-2-yl)-4-oxo-4,5-dihydro-1H-pyrazolo[4,3-c]pyridin-7-yl)-N,1-dimethyl-N-(tetrahydro-2H-pyran-4-yl)-1H-pyrazole-5-carboxamide], the inhibition at 1 µM at JAK1 turned out to be 95%; on JAK2, 96%; on JAK3 it was 99%; at TYK2 it was 98%.
